Columns and labels:
[1] = Lipophilicity, log D of compound at pH 7.4; format: physicochemical; settings: buffer
[2] = Dissociation constant, acidic pKa of compound by spectrophotometric method; format: physicochemical
[3] = Clearance in human hepatocytes at 1 uM measured up to 3 hrs by LC-MS/MS analysis; format: ADME, cell-based, Hepatocyte
[4] = Clearance in Sprague-Dawley rat hepatocytes at 1 uM measured up to 3 hrs by LC-MS/MS analysis; format: ADME, cell-based, Hepatocyte
[5] = Plasma clearance in Sprague-Dawley rat at 1 mg/kg, iv measured up to 8 hrs by LC-MS/MS analysis; format: ADME, organism-based
[6] = Blood clearance in FVB mouse at 1 mg/kg, iv measured upto 6 hrs by LC-MS/MS analysis; format: ADME, organism-based; settings: whole blood
[7] = Volume of distribution at steady state in FVB mouse at 1 mg/kg, iv measured upto 6 hrs by LC-MS/MS analysis; format: ADME, organism-based; settings: in vivo, read-out: Vdss
[8] = Volume of distribution at steady state in Sprague-Dawley rat at 1 mg/kg, iv measured upto 8 hrs by LC-MS/MS analysis; format: ADME, organism-based; settings: in vivo, read-out: Vdss
[9] = Ratio of drug uptake in Sprague-Dawley rat liver to plasma at 5 mg/kg, po measured up to 8 hrs by LC-MS/MS analysis; format: ADME, organism-based
[10] = Volume of distribution at steady state in Beagle dog at 0.5 mg/kg, iv administered as single dose measured upto 24 hrs by LC-MS/MS analysis; format: ADME, organism-based, Canis lupus familiaris; settings: in vivo, read-out: Vdss
[11] = Plasma clearance in Beagle dog at 0.5 mg/kg, iv administered as single dose measured upto 24 hrs by LC-MS/MS analysis; format: ADME, organism-based, Canis lupus familiaris
[12] = Plasma clearance in cynomolgus monkey at 0.5 mg/kg, iv administered as single dose measured upto 24 hrs by LC-MS/MS analysis; format: ADME, organism-based, Macaca fascicularis
[13] = Volume of distribution at steady state in cynomolgus monkey at 0.5 mg/kg, iv administered as single dose measured upto 24 hrs by LC-MS/MS analysis; format: ADME, organism-based, Macaca fascicularis; settings: in vivo, read-out: Vdss
[14] = Half life in Sprague-Dawley rat at 1 mg/kg, iv measured upto 8 hrs by LC-MS/MS analysis; format: ADME, organism-based; settings: in vivo
[15] = Half life in Beagle dog at 0.5 mg/kg, iv administered as single dose measured upto 24 hrs by LC-MS/MS analysis; format: ADME, organism-based, Canis lupus familiaris; settings: in vivo
[16] = Half life in cynomolgus monkey at 0.5 mg/kg, iv administered as single dose measured upto 24 hrs by LC-MS/MS analysis; format: ADME, organism-based, Macaca fascicularis; settings: in vivo
[17] = Oral bioavailability in Sprague-Dawley rat at 5 mg/kg measured upto 8 hrs by LC-MS/MS analysis; format: ADME, organism-based; settings: in vivo
[18] = Oral bioavailability in Beagle dog at 0.5 mg/kg administered as single dose measured upto 24 hrs by LC-MS/MS analysis; format: ADME, organism-based, Canis lupus familiaris; settings: in vivo
[19] = Oral bioavailability in cynomolgus monkey at 0.5 mg/kg administered as single dose measured upto 24 hrs by LC-MS/MS analysis; format: ADME, organism-based, Macaca fascicularis; settings: in vivo
[20] = Clearance in Sprague-Dawley rat at 1 mg/kg, iv measured upto 8 hrs by LC-MS/MS analysis relative to hepatic blood flow; format: ADME, organism-based; settings: in vivo
[21] = Clearance in cynomolgus monkey at 0.5 mg/kg, iv administered as single dose measured upto 24 hrs by LC-MS/MS analysis relative to hepatic blood flow; format: ADME, organism-based, Macaca fascicularis; settings: in vivo
[22] = Clearance in Beagle dog at 0.5 mg/kg, iv administered as single dose measured upto 24 hrs by LC-MS/MS analysis relative to hepatic blood flow; format: ADME, organism-based, Canis lupus familiaris; settings: in vivo
[23] = Drug metabolism in human hepatocytes assessed as oxidation of arene ring at 1 uM measured up to 3 hrs by LC-MS/MS analysis; format: ADME, cell-based, Hepatocyte
[24] = Drug excretion in Sprague-Dawley rat bile at 1 mg/kg, iv or 5 mg/kg, po measured up to 8 hrs by LC-MS/MS analysis; format: ADME, organism-based; settings: in vivo
[25] = Dissociation constant, basic pKa of compound; format: physicochemical
[26] = Drug level in plasma of FVB transgenic mouse model of inherited erythromelalgia xenografted with human HEK293 cells harboring I848T mutation at 15 mg/kg, po measured after 70 mins by LC-MS/MS analysis; format: ADME, organism-based
[27] = Drug level in plasma of FVB transgenic mouse model of inherited erythromelalgia xenografted with human HEK293 cells harboring I848T mutation at 50 mg/kg, po measured after 70 mins by LC-MS/MS analysis; format: ADME, organism-based

logD [1] | CLhep predicted at 1 µM [3] [mL/min/kg] | CLhep predicted at 1 µM [4] [mL/min/kg] | clearance [5] [mL/min/kg] | SMILES | further results
3.2 | 7.7 | 14 | 0.78 to 0.8 | O=S(=O)(Nc1ccncn1)c1cc2c(cc1F)[C@@H](N1CC[C@H](C(F)(F)F)C[C@@H]1c1ccc(F)cc1)CCO2 | pKa [2]: 5.81; clearance [6]: 8.3 mL/min/kg; Vd [7]: 0.9 L/kg; Vd [8]: 0.7 L/kg; Kp at 8 h [9]: 4
1.2 | 13 | 13 | 82 | O=S(=O)(Nc1ccncn1)c1cc2c(cc1F)[C@@H](N1CC[C@H](C(F)(F)F)C[C@@H]1c1ccncc1)CCO2 | –
3.5 | 11 | 32 | – | O=S(=O)(Nc1ncns1)c1ccc2c(c1)OCC[C@@H]2N1CC[C@H](C(F)(F)F)C[C@@H]1c1ccccc1 | –
0.9 | 14 | 14 | 42 | Cn1nccc1[C@H]1C[C@@H](C(F)(F)F)CCN1[C@H]1CCOc2cc(S(=O)(=O)Nc3ccncn3)c(F)cc21 | –
4.3 | < 6.2 | < 10 | 0.71 | O=S(=O)(Nc1cccnn1)c1cc2c(cc1F)[C@@H](N1CC[C@H](C(F)(F)F)C[C@@H]1c1ccc(F)cc1)CCO2 | pKa [2]: 6.59
2.7 | – | – | – | O=S(=O)(Nc1ncns1)c1cc(F)c(CN2CC[C@@H](C(F)(F)F)C[C@H]2c2ccccc2)cc1F | –
5 | < 6.2 | < 10 | 4.9 | O=S(=O)(Nc1ccc(F)cn1)c1cc2c(cc1F)[C@@H](N1CC[C@H](C(F)(F)F)C[C@@H]1c1ccc(F)cc1)CCO2 | pKa [2]: 8.22
1.3 | 9.1 | 15 | 93 | O=S(=O)(Nc1ccncn1)c1cc2c(cc1F)[C@@H](N1CC[C@H](C(F)(F)F)C[C@@H]1c1cc[nH]n1)CCO2 | –
0.5 | 9 | 25 | 42 | O=S(=O)(Nc1ccncn1)c1cc2c(cc1F)[C@@H](N1CC[C@H](C(F)(F)F)C[C@@H]1c1cnccn1)CCO2 | –
1.4 | < 6.2 | 17 | 14 to 15 | O=S(=O)(Nc1ccncn1)c1cc2c(cc1F)[C@@H](N1CC[C@H](C(F)(F)F)C[C@@H]1c1ccccn1)CCO2 | Vd [10]: 0.74 L/kg; Vd [8]: 1.2 L/kg; clearance [11]: 2.4 mL/min/kg; clearance [12]: 19 mL/min/kg; Vd [13]: 0.66 L/kg; half-life [14]: 1.7 h; half-life [15]: 4.3 h; half-life [16]: 2.1 h; bioavailability [17]: 73%; bioavailability [18]: 32%; bioavailability [19]: 18%; clearance [20]: 8 to 44%; clearance [21]: 8 to 44%; clearance [22]: 8 to 44%
1.3 | 8.2 | 41 | 46 | Cn1ccc([C@H]2C[C@@H](C(F)(F)F)CCN2[C@H]2CCOc3cc(S(=O)(=O)Nc4ccncn4)c(F)cc32)n1 | –
0.6 | 7.8 | 16 | – | O=S(=O)(Nc1ccncn1)c1cc2c(cc1F)[C@@H](N1CC[C@H](C(F)(F)F)C[C@@H]1c1ccncn1)CCO2 | –
3.2 | 11 | 17 | 62 | O=S(=O)(Nc1ncns1)c1ccc2c(c1)OCC[C@@H]2N1CC[C@H](C(F)(F)F)C[C@@H]1c1ccc(F)cc1 | pKa [2]: 3.26; clearance [6]: 46 mL/min/kg; Vd [7]: 4.8 L/kg; Vd [8]: 23 L/kg; Kp at 8 h [9]: 202; Drug metabolism [23]: Metabolite_Notdetected; Drug excretion [24]: Active
0.9 | 12 | 12 | 62 | O=S(=O)(Nc1ccncn1)c1cc2c(cc1F)[C@@H](N1CC[C@H](C(F)(F)F)C[C@@H]1c1cnco1)CCO2 | –
2.7 | – | – | – | O=S(=O)(Nc1ncns1)c1cc(F)c(CN2CC[C@H](C(F)(F)F)C[C@@H]2c2ccccc2)cc1F | pKa [25]: 5.5; concentration at 70 min [26]: 33 µM; concentration at 70 min [27]: 58 µM
1.3 | 15 | 26 | 101 | O=S(=O)(Nc1ccncn1)c1cc2c(cc1F)[C@@H](N1CC[C@H](C(F)(F)F)C[C@@H]1c1cccnc1)CCO2 | –
1.1 | 12 | 18 | 161 | O=S(=O)(Nc1ccncn1)c1cc2c(cc1F)[C@@H](N1CC[C@H](C(F)(F)F)C[C@@H]1c1cn[nH]c1)CCO2 | –
1.9 | – | – | – | O=S(=O)(Nc1ncns1)c1cc(F)c(CN2CCCC[C@@H]2c2ccccc2)cc1F | –
2.8 | < 6.2 | 13 | 2.1 | O=S(=O)(Nc1ccon1)c1cc2c(cc1F)[C@@H](N1CC[C@H](C(F)(F)F)C[C@@H]1c1ccc(F)cc1)CCO2 | pKa [2]: 4.49
0.2 | < 6.2 | < 10 | – | O=S(=O)(Nc1ccncn1)c1cc2c(cc1F)[C@@H](N1CC[C@H](C(F)(F)F)C[C@@H]1c1ccnnc1)CCO2 | –
1.9 | – | – | – | O=S(=O)(Nc1ncns1)c1cc(F)c(CN2CCCC[C@H]2c2ccccc2)cc1F | –

— ChEMBL document CHEMBL4385607, “Structure- and Ligand-Based Discovery of Chromane Arylsulfonamide Nav1.7 Inhibitors for the Treatment of Chronic Pain” (J Med Chem, 2019)
